Biological target: T1, Amine oxidase [flavin-containing] A (Bos taurus, UniProt P21398)
T1 sequence (P21398 whole entry): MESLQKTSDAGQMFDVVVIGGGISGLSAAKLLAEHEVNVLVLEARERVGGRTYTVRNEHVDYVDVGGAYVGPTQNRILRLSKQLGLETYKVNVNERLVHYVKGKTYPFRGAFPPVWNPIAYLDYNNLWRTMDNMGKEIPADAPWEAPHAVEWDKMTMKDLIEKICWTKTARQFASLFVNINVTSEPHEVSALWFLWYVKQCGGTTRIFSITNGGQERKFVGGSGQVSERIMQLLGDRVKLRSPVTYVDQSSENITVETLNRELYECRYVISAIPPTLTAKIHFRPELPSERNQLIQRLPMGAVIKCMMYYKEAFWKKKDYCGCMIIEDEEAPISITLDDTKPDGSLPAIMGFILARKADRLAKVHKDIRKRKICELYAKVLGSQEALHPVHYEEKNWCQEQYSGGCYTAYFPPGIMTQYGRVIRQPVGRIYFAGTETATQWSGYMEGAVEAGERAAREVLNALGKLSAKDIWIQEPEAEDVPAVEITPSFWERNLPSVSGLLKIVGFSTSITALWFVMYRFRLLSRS
Assay: Inhibition of bovine brain mitochondria MAOA

Compound | Ki [nM]
Cc1csc(N/N=C/c2ccccc2C)n1 | 35.5
Cc1csc(N/N=C/c2ccccc2)n1 | 7.24
Cc1csc(N/N=C/c2ccc(Cl)cc2Cl)n1 | 12
Clc1ccc(/C=N/Nc2nc(-c3ccccc3)cs2)c(Cl)c1 | 93.3
COc1ccc(/C=N/Nc2nc(C)cs2)cc1 | 19.1
Cc1csc(N/N=C/c2ccc(Cl)cc2)n1 | 38
C(=N\Nc1nc(-c2ccccc2)cs1)/c1ccccc1 | 1200

Further lines, results first:

Ki [nM] | Compound
50.1 | COc1ccc(/C=N/Nc2nc(-c3ccccc3)cs2)cc1
13.2 | COc1ccc(/C=N/Nc2nc(C)cs2)cc1OC
30.2 | COc1ccc(/C=N/Nc2nc(-c3ccccc3)cs2)cc1OC
100 | Clc1ccc(/C=N/Nc2nc(-c3ccccc3)cs2)cc1
